The values below come from patent US20120251482A1, “USE FOR IMPROVING 5-HT FUNCTION AND ENOS EXPRESSION OF KMUPS AMINE SALTS” (KAOHSIUNG MEDICAL UNIVERSITY, priority 2011, published 2012).

Assay [1] relates to PASMCs. Briefly: 5-HT-induced PASMCs proliferation, MTT assay. It counts as cell-based, rat. Conditions: KMUP-1 1-100 μM; 5-HT 10 μM 24 h. The method, then: (§1) Wistar rats were anesthetized with an overdose of sodium pentobarbital (60 mg/kg) and the skin was sterilized with 75% alcohol. The chest was opened and the heart and lung were removed. The organs were rinsed several times in PBS. The pulmonary arterys (PAs) were segregated in a sterile manner. The outer sphere was peeled and the microtubule was snipped visually, and endothecia were shaved lightly 2-3 times in order to remove endothelial cells. The tunica media was prepared into scraps (1 mm^3) in DMEM (Dulbecco's modified Eagle's medium). PASMCs were cultured in DMEM containing 10% fetal bovine serum (5% CO2 at 37° C.). The culture medium was changed every 3 days and cells were subcultured until confluence. Primary cultures of 2-4 passages were used in the experiments. Cells were examined by immunofluorescence staining of α-actin to confirm the purity of PASMCs.
PASMCs were seeded into 96-well plates at a density of 1×10^4 cells/well. […] At the end of this period, MTT (2 g/L) was added to each well, and incubation proceeded at 37° C. for 4 h. Thereafter, the medium was removed and the cells were solubilized in 150 μL DMSO. The optical density (OD) of each well was determined by enzyme-linked ELISA at 540 nm of wavelength.
On the technique in general: Tetrazolium dyes change colour on reduction, which living cells bring about.

In assay [2] the test system is eNOS. In words: Expression of eNOS in HPAEC (Western blotting). It counts as cell-based, human. Here is the method:
(§2) HPAEC purchased from ATCC were maintained in humidified incubator containing 5% CO2 at 37° C. HPAEC were cultured in F-12 supplemented with 10% fetal bovine serum. The culture medium was changed every 3 days and cells were subcultured until confluence. HPAEC were harvested with a solution of trypsin-EDTA (GIBCO BRL, NY, USA) while in a logarithmic phase of growth. HPAEC were used between passages 4-8.
PASMCs were stimulated with 5-HT or not, as indicated. Cells were treated with KMUP-1 for 24 h before 5-HT stimulation. Whole lysates were collected and resolved by SDS-PAGE as previously described (Liu et al., 2004). Primary antibodies were anti-β-actin at: 1:10,000 dilution and anti-RhoA, anti-ROCK, antiphospho-ERK1/2, anti-ERK1/2, anti-phospho-AKT, anti-AKT, anti-5HTT, anti-5-HT2B and anti-eNOS at 1:1000. All blots were incubated with antibodies at 4° C. overnight. After being washed, the appropriate secondary antibodies were added at a dilution of 1:1000 for 1 h at room temperature. After extensive washing, blots were developed with a Super Signal enhanced chemiluminescence kit (Biorad, CA, USA) and visualized on Kodak AR film.
To measure the expression of eNOS and 5-HT2B receptor in HPAEC after incubation with KMUP-1(1-100 μM) for 24 h, whole lysates were collected for Western blotting assay. The relative density was determined using NIH imaging software.
On the technique in general: Immunoblotting shows a protein as a band on a membrane.

Assay [3] has as its system PASMCs. In words: 5-HT-induced PASMCs migration, wound assay model. The assay is classed as cell-based, rat. Conditions: 10-100 μM; 5-HT 10 μM 24 h. Here is the method: The wound edge was viewed and photographed under a microscope (Nikon, Tokyo, Japan) before and after culture for 24 h in serum-free DMEM in the presence of 5HT (10 μM). The distance the cells migrated from the wound surface was then manually measured.

The subject of assay [4] is RhoA. Briefly: 5-HT-induced RhoA translocation in PASMCs. The settings on record: 1-100 μM, 24 h; 5-HT 10 μM 15 min. The assay is classed as cell-based, rat. Here is the method:
as §1, with “Cells were examined by immunofluorescence staining of α-actin to confirm the purity of PASMCs.” left out
Previous reports have shown that the active form of RhoA is translocated from the cytosol to the plasma membrane, where it activates Rho kinase (Gong et al., 1997)). […] To assess membrane trans-location of RhoA, protein in membrane and cytosolic fractions was determined by standard Western blot analysis using mouse monoclonal anti-RhoA antibody (1:1000 dilution, Santa Cruz Biotechnology) and a peroxidase-labeled anti-mouse immunoglobulin (Ig) G antibody (1:1000 dilution, Santa Cruz Biotechnology, CA, USA). The relative density of membrane to cytosolic RhoA was determined using NIH imaging software. […]

Assay [5] concerns rat pulmonary artery. In words: Isometric force of 5-HT-constricted pulmonary artery rings. The method, then: Wistar rats were euthanized with an overdose of sodium pentobarbital (60 mg/kg, i.p.) before open-chest surgery. During surgery, a thoracic retractor was used to help isolate the pulmonary artery. The chest was opened to dissect the second branches of the main pulmonary artery, which were cut into 2-3 mm rings, suspended under isometric conditions and connected to a force transducer as previously described (Ugo Basile, Model 7004, Comerio-VA, Italy) (Schach et al., 2007) to measure the constriction caused by 5-HT (10 μM). The pulmonary artery ring preparations were stretched to a basal tension of 1 g and allowed to equilibrate for 60-90 min. After equilibration, pulmonary artery rings were constricted with 5-HT (10 μM) to prime the tissues and check the functionality of the endothelium (at least 80% relaxation in response to acetylcholine 1 μM). Once the contractile response to each agonist reached a stable tension, KMUP-1 (0.1-100 μM) was cumulatively added to the organ bath in the presence of 5-HT (10 μM, pre-incubation time of 15 min).
The effect of KMUP-1 on NOS and 5-HT was also studied in vessels pre-incubated with the NOS inhibitor L-NAME (100 μM) 20 min before 5-HT administration. The percentage of relaxation was estimated using the following equation: relaxation (%)=(maximal contraction—relaxation level)/(maximal contraction-basal level)×100. Data was obtained from serotonin-induced maximal contractile responses in pulmonary artery.

Assay [6] concerns the target T1, 5-HT2B receptor (Homo sapiens, UniProt P41595).
T1 construct: full length clones of 5-HT2A, 5-HT2B and 5-HT2C receptor were prepared from CHO-K1 cells; expressed in transfected cells; host or cells: CHO-K1
Briefly: Displacement of [3H]-LSD radioligand binding. The settings on record: from Table 1. Here is the method: As described previously (Bonhaus et al., 1995), full length clones of 5-HT2A, 5-HT2B and 5-HT2C receptor were prepared from CHO-K1 cells. […] IC50 represents the concentration of competing ligand which displaces 50% of the specific binding of the radioligand. Ki values for competition curves were calculated using the Cheng-Prusoff equation (Cheng, 2001).

Assay [7] relates to AKT. Briefly: 5-HT-induced phosphorylation of AKT in PASMCs. The assay is classed as cell-based, rat. The method, then: as §1
(§3) PASMCs were stimulated with 5-HT or not, as indicated. Cells were treated with KMUP-1 for 24 h before 5-HT stimulation. […]
(§4) The expression of RhoA/ROCK and phosphorylation of ERK1/2 and AKT kinase in PASMCs were assessed by incubating the PASMCs with 5-HT (10 μM) for 15 min (peak time for RhoA/ROCK, ERK1/2 and AKT phosphorylation) and 5-HTT for 10 min (peak time for 5-HTT) after KMUP-1 (1-100 μM) was added to the culture of PASMCs for 24 h.

The test system of assay [8] is 5-HTT. Briefly: Pulmonary 5-HTT expression in MCT-treated rats (immunochemistry, Western blotting). It counts as in vivo, rat. The method, then: All experiments were performed in adult male Wistar rats (300 to 350 g) in accordance with institutional guidelines after approval by the ethical review committee. PAH development and pulmonary expression of 5-HTT were examined in rats after single injection of MCT (60 mg/kg i.p.). To assess the potential preventive effect of KMUP-1 on MCT-induced PAH and associated proliferation, we assigned rats at random to 2 groups of 8 animals which received KMUP-1 at 5 mg/kg/day p.o or 1 mg/kg/day i.p. All treatments were given once a day for 3 weeks after a single MCT injection (60 mg/kg i.p.) (Abe et al., 2004). On day 21, rats were anesthetized and pulmonary artery blood pressure (MPAP) was recorded as previously described (Chung et al., 2010). Lung tissues were dissected for Western blotting and immunohistochemistry.
For 5-HTT immunostaining, the lung slides were dewaxed in 100% xylene, and the sections were then rehydrated by successive immersion first in decreasing ethanol concentrations (100%, 90%, 80%, 50% and 30%) and then in water. Endogenous peroxidase activity was blocked using H2O2 in methanol (0.3% vol/vol) for 10 min. After three PBS washes, sections were pre-incubated in PBS supplemented with 3% (wt/vol) BSA for 30 min, then incubated overnight at 4° C. with goat polyclonal anti-5-HTT antibody (Abcam Biotechnology, Cambridge, UK) diluted to 1:1000 in 1×PBS, 0.02% BSA. […]

Assay [9] deals with ERK1/2. Briefly: 5-HT-induced phosphorylation of ERK1/2 in PASMCs. The assay is classed as cell-based, rat. Here is the method:
as §1, §3, §4

In assay [10] the test system is pulmonary arterial smooth muscle cells (PASMCs). Briefly: PASMCs [Ca2+]i measurement (Fura-2/AM). The assay is classed as cell-based, rat. The settings on record: at 10 μM; 5-HT 10 μM. Here is the method: as §1
The measurement of [Ca^2+]i in PASMCs was performed using a spectrofluorophotometer as previously reported (Wang et al., 2004). PASMCs, cultured for 2-4 passages and re-suspended by trypsin, were loaded with Fura-2/AM for the measurement of [Ca^2+]i changes in cells within the cuvette by spectrofluorophotometer (Shimadzu, RF-5301PC, Shimadzu, Japan). KMUP-1 was applied 5 min before application of 5-HT (10 μM).

In assay [11] the test system is monocrotaline (MCT)-induced pulmonary artery hypertension rats. Briefly: Mean pulmonary arterial pressure in MCT-induced PAH rats. The assay is classed as in vivo, rat. The settings on record: MCT-treated rats, daily treatment for 21 days, n = 5.
The subject of assay [12] is human pulmonary artery endothelial cell (HPAEC). Briefly: Nitric oxide production in HPAEC (Griess method). It counts as cell-based. The settings on record: 5-HT 10 μM for 30 min. Here is the method:
as §2
Production of NO in HPAEC was determined using the Griess method (Niwano et al., 2003). The three step Greiss test converts nitrate (NO3^−) into nitrite (NO2^−) giving a total NO2^− concentration from a standard calibration curve. HPAEC were incubated with or without KMUP-1 (10 μM) for 24 h and then incubated with 5-HT (10 μmol/L) for 30 min. Media samples from HPAEC were taken and the NO concentration was determined. Six independent experiments were carried out and data are reported as the mean mean±SEM.
In general terms: Nitrite, measured by Griess reagent, commonly stands in for NO production.

Where [13] appears, read: pre-incubation 1-100 μM for 24 h.

The structures appear in SMILES notation. Structures can show the parent of a compound that is named as a salt.

T1 sequence (P41595 whole entry): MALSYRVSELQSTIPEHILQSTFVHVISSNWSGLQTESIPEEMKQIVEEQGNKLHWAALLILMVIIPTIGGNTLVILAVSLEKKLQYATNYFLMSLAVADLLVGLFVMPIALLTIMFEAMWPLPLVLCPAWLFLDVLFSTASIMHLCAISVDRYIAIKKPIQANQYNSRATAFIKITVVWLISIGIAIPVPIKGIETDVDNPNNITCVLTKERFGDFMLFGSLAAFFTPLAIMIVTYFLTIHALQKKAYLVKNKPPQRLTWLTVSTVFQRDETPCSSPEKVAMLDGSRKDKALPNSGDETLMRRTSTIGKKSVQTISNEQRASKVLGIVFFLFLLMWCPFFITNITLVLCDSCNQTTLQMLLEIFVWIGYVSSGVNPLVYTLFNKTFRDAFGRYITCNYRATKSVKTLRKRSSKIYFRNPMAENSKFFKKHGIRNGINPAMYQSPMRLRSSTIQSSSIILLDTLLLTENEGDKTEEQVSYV

Take `Cn1c(=O)c2c(ncn2CCN2CCN(c3ccccc3Cl)CC2)n(C)c1=O` [KMUP-1, 7-[2-[4-(2-chlorophenyl)piperazinyl]ethyl]-1,3-dimethyl-xanthine]: in assay [1], the PASMCs proliferation result is recorded as “dose-dependently inhibited”. Moreover, the eNOS expression result in assay [2] (1-100 μM for 24 h) was “dose-dependently increased”. Further, the “5-HT induced PASMCs migration” value in [3] is given as “inhibited”. Moreover, in [4], the “5-HT stimulated RhoA translocation” value is listed as “inhibited”. In assay [5] (0.1-100 μM), the “contractile response of pulmonary artery to 5-HT (10 μM)” value is given as “inhibited”. In addition, the “maximum response of pulmonary artery to 5-HT in the presence of L-NAME” value in assay [5] (KMUP-1 10-100 μM, L-NAME 100) is listed as “reduced the maximum response”. In [6], the “affinity order of the sub-receptors” value is on record as 5-HT2A>5-HT2B>5-HT2C; the “ligand specificity of the human 5-HT2B receptor versus 5-HT2A and 5-HT2C receptors” value was “more selective”. Further, in assay [7] (setting [13]), the “5-HT-induced phosphorylation of AKT” value is on record as “dose-dependently inhibited”. The “5-HTT expression in pulmonary artery, immunochemistry” value in assay [8] (21 days after MCT injection, 5 mg/kg p.o. and 1 mg/kg i.p.) is “significantly decreased”. In addition, the “5-HTT protein expression in lung tissue, Western blotting” value in assay [8] (MCT-treated rats) was “significantly reduced”. The “5-HT-induced phosphorylation of ERK1/2” value in assay [9] (setting [13]) is “dose-dependently inhibited”. Besides, the “inhibition of the sustained [Ca2+]i response to 5-HT” value in assay [10] is listed as 65%.
In the case of `COC(=O)[C@@H](N)CCCNC(=N)N[N+](=O)[O-]` [L-NAME, N^ω-nitro-L-arginine methyl ester, reference compound], the 5-HT-induced constriction result in assay [5] (L-NAME alone with 5-HT) was “enhanced”.
Take `Cn1c(=O)c2c(ncn2CCN2CCN(c3ccccc3Cl)CC2)n(C)c1=O` [KMUP-1 HCl]: the “mean pulmonary arterial pressure (MPAP), Table 2” value in assay [11] was 35.8 ± 3.2.
For `NCCc1c[nH]c2ccc(O)cc12` [5-HT, 5-hydroxytryptamine], in [2] (5-HT 10 μM for 30 min), the “expression of eNOS compared to the control group” value is on record as “increased”. Moreover, the “release of NO compared to the control group” value in assay [12] is “increased”. For the same compound, the “increase of phosphorylation of AKT” value in [7] (5-HT 10 μM for 15 min) worked out at 2.3 fold. Besides, the “increase of phosphorylation of ERK1/2” value in [9] (5-HT 10 μM for 15 min) amounted to 2.3 fold.
